In publication PMC3223731, “Environment sensing and response mediated by ABC transporters” (BMC Genomics, 2011):

Assays:
Assay type in all cases: binding
[1] = molecular target: T1, RPA0985 (Rhodopseudomonas palustris, UniProt Q6NB45); test: fluorescence thermal shift (SYPRO orange); conditions: 100x ligand over protein (5 or 10 µM protein); 100 mM HEPES, 150 mM NaCl, pH 7.5
T1 construct: mature form, signal peptide removed; N-terminal 6xHis-TEV tag retained; E. coli
T1 sequence (Q6NB45 23-390): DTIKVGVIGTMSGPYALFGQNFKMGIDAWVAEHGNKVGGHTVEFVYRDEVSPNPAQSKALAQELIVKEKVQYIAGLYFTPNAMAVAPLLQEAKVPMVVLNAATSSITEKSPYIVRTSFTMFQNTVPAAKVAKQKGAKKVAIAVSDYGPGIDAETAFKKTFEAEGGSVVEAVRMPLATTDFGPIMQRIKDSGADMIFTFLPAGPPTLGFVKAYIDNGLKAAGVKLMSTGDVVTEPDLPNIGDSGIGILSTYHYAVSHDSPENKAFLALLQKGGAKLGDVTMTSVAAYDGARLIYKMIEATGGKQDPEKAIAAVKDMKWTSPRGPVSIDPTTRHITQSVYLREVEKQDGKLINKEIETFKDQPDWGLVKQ

[2] = molecular target: T2, RPA4029 (Rhodopseudomonas palustris, UniProt Q6N2M1); test: fluorescence thermal shift (SYPRO orange); conditions: 100x ligand over protein (5 or 10 µM protein); 100 mM HEPES, 150 mM NaCl, pH 7.5
T2 construct: gene TX73_020875; mature form, signal peptide removed; N-terminal 6xHis-TEV tag retained; E. coli
T2 sequence (Q6N2M1 28-392): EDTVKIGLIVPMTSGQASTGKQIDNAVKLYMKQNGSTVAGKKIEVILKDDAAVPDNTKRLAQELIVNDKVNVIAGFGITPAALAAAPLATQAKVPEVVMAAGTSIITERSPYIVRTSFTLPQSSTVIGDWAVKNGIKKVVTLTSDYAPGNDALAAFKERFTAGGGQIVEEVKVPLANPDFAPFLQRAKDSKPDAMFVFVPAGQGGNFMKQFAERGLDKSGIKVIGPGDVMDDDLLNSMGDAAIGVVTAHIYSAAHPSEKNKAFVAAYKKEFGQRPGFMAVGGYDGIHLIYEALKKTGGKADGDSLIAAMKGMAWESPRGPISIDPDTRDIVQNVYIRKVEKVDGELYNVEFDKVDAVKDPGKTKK

[3] = molecular target: T3, RPA0668 (hbaE) (Rhodopseudomonas palustris, UniProt G3XCQ4); test: fluorescence thermal shift (SYPRO orange); conditions: 100x ligand over protein (5 or 10 µM protein); 100 mM HEPES, 150 mM NaCl, pH 7.5
T3 construct: mature form, signal peptide removed; N-terminal 6xHis-TEV tag retained; E. coli

[4] = molecular target: T4, RPA1789 (Rhodopseudomonas palustris, UniProt Q6N8W4); test: fluorescence thermal shift (SYPRO orange); conditions: 100x ligand over protein (5 or 10 µM protein); 100 mM HEPES, 150 mM NaCl, pH 7.5
T4 construct: mature form, signal peptide removed; N-terminal 6xHis-TEV tag retained; E. coli
T4 sequence (Q6N8W4 27-385): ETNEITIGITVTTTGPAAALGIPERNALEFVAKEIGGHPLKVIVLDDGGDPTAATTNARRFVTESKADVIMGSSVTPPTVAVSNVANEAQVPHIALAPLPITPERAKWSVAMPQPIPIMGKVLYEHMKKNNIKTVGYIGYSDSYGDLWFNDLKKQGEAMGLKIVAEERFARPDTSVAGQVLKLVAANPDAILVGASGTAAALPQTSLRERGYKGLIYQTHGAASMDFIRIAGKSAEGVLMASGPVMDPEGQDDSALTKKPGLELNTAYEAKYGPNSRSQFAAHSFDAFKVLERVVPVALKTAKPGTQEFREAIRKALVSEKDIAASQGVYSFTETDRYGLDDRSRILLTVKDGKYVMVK

[5] = molecular target: T5, RPA0058 (Rhodopseudomonas palustris, UniProt Q6NDP7); test: fluorescence thermal shift (SYPRO orange); conditions: 100x ligand over protein (5 or 10 µM protein); 100 mM HEPES, 150 mM NaCl, pH 7.5
T5 construct: gene ugpB; mature form, signal peptide removed; N-terminal 6xHis-TEV tag retained; E. coli
T5 sequence (Q6NDP7 24-442): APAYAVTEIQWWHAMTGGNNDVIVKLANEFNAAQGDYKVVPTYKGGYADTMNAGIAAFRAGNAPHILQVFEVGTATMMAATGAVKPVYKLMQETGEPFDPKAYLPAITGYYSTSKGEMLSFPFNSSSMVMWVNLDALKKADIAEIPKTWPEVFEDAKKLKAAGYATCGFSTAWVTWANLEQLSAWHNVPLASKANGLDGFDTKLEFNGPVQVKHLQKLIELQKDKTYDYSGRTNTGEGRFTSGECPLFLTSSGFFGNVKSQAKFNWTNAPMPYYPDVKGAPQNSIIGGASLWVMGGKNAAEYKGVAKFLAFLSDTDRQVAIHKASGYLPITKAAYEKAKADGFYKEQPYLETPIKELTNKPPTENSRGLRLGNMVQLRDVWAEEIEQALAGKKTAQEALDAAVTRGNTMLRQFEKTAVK

[6] = molecular target: T6, RPA3810 (Rhodopseudomonas palustris, UniProt Q6N384); test: fluorescence thermal shift (SYPRO orange); conditions: 100x ligand over protein (5 or 10 µM protein); 100 mM HEPES, 150 mM NaCl, pH 7.5
T6 construct: gene TX73_019730; mature form, signal peptide removed; N-terminal 6xHis-TEV tag retained; E. coli
T6 sequence (Q6N384 23-368): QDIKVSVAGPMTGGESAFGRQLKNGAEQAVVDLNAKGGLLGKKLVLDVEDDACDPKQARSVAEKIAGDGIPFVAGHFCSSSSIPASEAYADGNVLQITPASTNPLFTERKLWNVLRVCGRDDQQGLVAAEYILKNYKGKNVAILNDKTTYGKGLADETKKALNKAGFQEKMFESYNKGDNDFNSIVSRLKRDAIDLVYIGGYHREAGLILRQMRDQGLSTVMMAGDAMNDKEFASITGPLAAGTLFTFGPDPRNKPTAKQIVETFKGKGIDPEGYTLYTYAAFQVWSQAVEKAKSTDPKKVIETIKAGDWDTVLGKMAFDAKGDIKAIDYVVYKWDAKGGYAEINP

[7] = molecular target: T7, RPA4780 (Rhodopseudomonas palustris, UniProt Q6N0I2); conditions: 100x ligand over protein (5 or 10 µM protein); 100 mM HEPES, 150 mM NaCl, pH 7.5
T7 construct: gene pstS; mature form, signal peptide removed; N-terminal 6xHis-TEV tag retained; E. coli

[8] = molecular target: T8, RPA2014 (Rhodopseudomonas palustris, UniProt Q6N890); test: fluorescence thermal shift (SYPRO orange); conditions: 100x ligand over protein (5 or 10 µM protein), 100 mM HEPES, 150 mM NaCl, pH 7.5
T8 construct: gene TX73_010380; mature form, signal peptide removed; N-terminal 6xHis-TEV tag retained; E. coli
T8 sequence (Q6N890 31-371): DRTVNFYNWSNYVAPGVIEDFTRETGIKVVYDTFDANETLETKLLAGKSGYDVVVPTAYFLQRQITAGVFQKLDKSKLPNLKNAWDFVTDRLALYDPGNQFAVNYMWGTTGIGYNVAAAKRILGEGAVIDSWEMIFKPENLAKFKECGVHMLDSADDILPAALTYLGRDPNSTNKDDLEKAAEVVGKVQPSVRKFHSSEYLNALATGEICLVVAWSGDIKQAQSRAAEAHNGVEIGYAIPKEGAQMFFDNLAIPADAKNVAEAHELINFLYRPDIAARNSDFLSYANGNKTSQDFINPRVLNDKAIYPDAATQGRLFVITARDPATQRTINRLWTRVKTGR

T3 sequence (G3XCQ4 entry or part of it): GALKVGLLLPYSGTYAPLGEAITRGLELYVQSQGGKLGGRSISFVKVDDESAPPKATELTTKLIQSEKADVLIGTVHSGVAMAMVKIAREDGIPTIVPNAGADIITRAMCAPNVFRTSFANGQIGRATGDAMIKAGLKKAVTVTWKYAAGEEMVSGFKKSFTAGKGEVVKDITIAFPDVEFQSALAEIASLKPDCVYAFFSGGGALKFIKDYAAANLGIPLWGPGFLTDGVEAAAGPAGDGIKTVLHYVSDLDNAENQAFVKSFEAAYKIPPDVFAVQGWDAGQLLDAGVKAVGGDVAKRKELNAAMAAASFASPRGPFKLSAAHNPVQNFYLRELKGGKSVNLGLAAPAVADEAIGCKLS
T7 sequence (Q6N0I2 22-336): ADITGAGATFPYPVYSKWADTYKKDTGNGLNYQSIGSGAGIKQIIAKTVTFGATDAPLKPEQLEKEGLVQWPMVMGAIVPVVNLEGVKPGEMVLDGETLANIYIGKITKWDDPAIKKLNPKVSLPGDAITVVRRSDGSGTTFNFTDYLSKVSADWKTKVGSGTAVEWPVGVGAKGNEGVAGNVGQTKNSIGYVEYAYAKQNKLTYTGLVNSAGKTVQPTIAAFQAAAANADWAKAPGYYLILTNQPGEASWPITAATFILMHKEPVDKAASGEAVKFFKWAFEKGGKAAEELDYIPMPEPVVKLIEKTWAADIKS

**Q.** Which ΔTm [1] does the source give for `O=C(O)c1ccc(O)cc1` [4-hydroxybenzoic acid] here?
**A.** The ΔTm was 29.5 °C.

**Q.** And the ΔTm [2]?
**A.** Its ΔTm is 17 °C.

**Q.** And the ΔTm [3]?
**A.** Its ΔTm is “closely related derivatives, 4-hydroxybenzoic acid, salicylate, and benzaldehyde”.

**Q.** With `O=C(O)/C=C/c1ccccc1` [cinnamic acid] as the compound, how does the ΔTm [4] read?
**A.** Its ΔTm is “one protein bound p-coumaric acid, ferulic acid, and cinnamic acid with good affinities”.

**Q.** With `COc1cc(/C=C/C(=O)O)ccc1O` [ferulic acid] as the compound, how does the ΔTm [4] read?
**A.** The ΔTm was “one protein bound p-coumaric acid, ferulic acid, and cinnamic acid with good affinities”.

**Q.** With `O=P(O)(O)OC[C@H](O)CO` [glycerol-3-phosphate] as the compound, how does the ΔTm [5] read?
**A.** The ΔTm was “RPA0058 and RPA4780 exhibited specific stabilization by glycerol-3-phosphate and phosphate, respectively”.

**Q.** How did the ΔTm [6] turn out when `NCC(=O)O` [glycine] was run?
**A.** Its ΔTm is “RPA3810, shifted primarily with amino acids with preferences for alanine, glycine and serine”.

**Q.** For `O=C(O)/C=C/c1ccc(O)cc1` [p-coumaric acid], which ΔTm [4] is on record?
**A.** Its ΔTm is “one protein bound p-coumaric acid, ferulic acid, and cinnamic acid with good affinities”.

**Q.** With `O=P(O)(O)O` [phosphate] as the compound, how does the ΔTm [7] read?
**A.** The ΔTm was “RPA0058 and RPA4780 exhibited specific stabilization by glycerol-3-phosphate and phosphate, respectively”.

**Q.** For `NCCCCN` [putrescine], which ΔTm [8] is on record?
**A.** The ΔTm was “indeed shifted with putrescine preferentially over spermine”.

**Q.** How did the ΔTm [3] turn out when `O=C(O)c1ccccc1O` [salicylic acid] was run?
**A.** Its ΔTm is “closely related derivatives, 4-hydroxybenzoic acid, salicylate, and benzaldehyde”.

**Q.** Which ΔTm ([8]; low affinity) does the source give for `NCCCNCCCCNCCCN` [spermine] here?
**A.** Its ΔTm is “spermine still binds this protein with low affinity in the FTS assay”.
